Test results: EP0247723A2, “Compositions and methods for treating allergic conjuctivitis” (MERCK FROSST CANADA INC., priority 1986, dated 1987)
Marks after values point to notes of the source that are not given here.

Test system: ANTIGEN-INDUCED VASCULAR PERMEABILITY CHANGES IN GUINEA-PIG CONJUNCTIVA
Assay: Inhibition of antigen-induced ocular inflammation (vascular permeability, extravasation of [99mTc]-human serum albumin into the conjunctiva)
Type: in vivo
Details: ovalbumin-sensitized guinea-pigs
Experimental: Guinea-pigs were actively sensitized to produce IgG1 and IgE antibodies to ovalbumin (2 weeks). Animals were then challenged topically in the eyes (10 µl of 2.5% w/v ovalbumin per eye) followed by intravenous administration of [^99mTc]-human serum albumin (0.25 mCi). Animals were then challenged with antigen either once or twice (2nd challenge 24 hours later). The response was a marked increase in vascular permeability as measured by extravasation of [^99mTc]-labelled human serum albumin into the conjunctiva.
To measure the inhibitory effect of Compounds I-IV, at varying times before antigen challenge, Compounds I-IV were administered either i.v. (1 mg/kg dosage) or topically (0.1% suspensions or_ solutions in 10 µl of 0.5% hydroxy ethylcellulose).

[1] = second challenge (24 hours later), topical 0.1% in 10 µl of 0.5% hydroxy ethylcellulose, pre-treat. time 5 min
[2] = single challenge, topical 0.1% in 10 µl of 0.5% hydroxy ethylcellulose, pre-treat. time 5 min

With CCCc1c(OCCCSc2ccc([C@H](O)[C@@H](C)CC(=O)O)cc2)ccc(C(C)=O)c1O (relative stereo) [II, (BS^*,YR^*)-4-(3-(4-acetyl-3-hydroxy-2-propyl-phenoxy)propylthio)-Y-hydroxy-B-methylbenzene-butanoic acid] the “% Inhib.” value [1] was 30.3* % and the “% Inhib.” value [2] was 0%.

With CCCc1c(OCCCS(=O)(=O)c2ccc(C(=O)CCC(=O)O)cc2)ccc(C(C)=O)c1O [Compound I, 4-((3-(4-acetyl-3-hydroxy-2-propylphenoxy)-propyl)sulfonyl)-Y-oxobenzene butanoic acid] the “% Inhib.” value (second challenge (24 hours later), i.v. 1 mg/kg, pre-treat. time 2 min) was 42.2** %, the “% Inhib.” value [1] was 37.0** % and the “% Inhib.” value (single challenge, i.v. 1 mg/kg, pre-treat. time 2 min) was 1.5%. The “% Inhib.” value [2] was 1.7%.

For COc1ccc2nc3cc(OC)c(=O)c(Br)c-3sc2c1 [III, 4-bromo-2,7-dimethoay-3H-phenothiazin-3-one], the “% Inhib.” value [1] was 48.0* % and the “% Inhib.” value [2] was 38.8*** %.

With OCc1ccccc1C=CCc1cc2c(cc1O)CCO2 [IV, 2,3-dihydro-6-(3-(2-hydroxymethyl)phenyl-2-propenyl)-5-benzofuranol] the “% Inhib.” value (second challenge (24 hours later), topical 0.1% in 10 µl of 0.5% hydroxy ethylcellulose, pre-treat. time 60 min) was 59.5* % and the “% Inhib.” value [2] was 28.8** %.
